Assay results published in PubChem BioAssay (NCI).
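Following 48 hours of exposure in 96-well plates, responses at five concentrations were used to interpolate endpoints linearly. Here, GI50 denotes the concentration required for 50% inhibition of growth. TGI: total growth inhibition.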

Key:
Assay in all cases: NCI tumour cell line growth inhibition, 48 h
UO-31 renal = system: UO-31 renal
ACHN renal = system: ACHN renal
SW-620 colon = system: SW-620 colon
SK-MEL-2 melanoma = system: SK-MEL-2 melanoma
OVCAR-3 ovarian = system: OVCAR-3 ovarian
HOP-62 NSCLC = system: HOP-62 NSCLC
LOX IMVI melanoma = system: LOX IMVI melanoma
NCI-H23 lung = system: NCI-H23 lung
NCI-H522 lung = system: NCI-H522 lung
HL-60(TB) leukemia = system: HL-60(TB) leukemia

Row | Compound | TGI (UO-31 renal) [µM] | TGI (ACHN renal) [µM] | TGI (SW-620 colon) [µM] | TGI (SK-MEL-2 melanoma) [µM] | TGI (OVCAR-3 ovarian) [µM] | TGI (HOP-62 NSCLC) [µM] | TGI (LOX IMVI melanoma) [µM] | TGI (NCI-H23 lung) [µM] | TGI (NCI-H522 lung) [µM] | TGI (HL-60(TB) leukemia) [µM] | GI50 (UO-31 renal) [µM] | GI50 (ACHN renal) [µM] | GI50 (SW-620 colon) [µM] | GI50 (SK-MEL-2 melanoma) [µM] | GI50 (OVCAR-3 ovarian) [µM] | GI50 (HOP-62 NSCLC) [µM] | GI50 (LOX IMVI melanoma) [µM] | GI50 (HL-60(TB) leukemia) [µM] | GI50 (NCI-H23 lung) [µM] | GI50 (NCI-H522 lung) [µM]
1 | COc1cc2ccc(C(=O)O)cc2cc1OC | > 100 | > 100 | > 100 | > 100 | > 100 | > 100 | > 100 | > 100 | > 100 | – | – | – | – | – | – | – | – | – | – | –
2 | O=C1NC(=Nc2ccccc2Cl)SC1C(=O)Nc1ccc([N+](=O)[O-])cc1[N+](=O)[O-] (stereo unspecified) | > 100 | > 100 | > 100 | > 100 | > 100 | > 100 | – | > 100 | > 100 | > 100 | – | – | – | – | – | – | – | – | – | –
3 | Cc1cccc(Cc2cnc(NC(=O)/C=C/c3ccco3)s2)c1 | > 100 | > 100 | > 100 | > 100 | 0.0914 | > 100 | > 100 | > 100 | – | 0.0837 | 0.0847 | 0.0645 | 0.0385 | 0.0737 | 0.0312 | 0.0535 | 0.0683 | 0.0281 | 0.108 | –
4 | N#CCCCCCn1c2ccccc2c2c3c(c4c5ccccc5[nH]c4c21)C(=O)N(O)C3=O | – | 2.33 | 34.8 | 4.67 | 5.72 | 2.79 | 1.44 | 5.54 | 0.411 | 3.5 | – | 0.851 | 1.01 | 1.83 | 1.47 | 0.468 | 0.24 | 1.48 | 1.55 | 0.164
5 | CCN1CCN(c2nc(NNC(=O)c3cccc(OC)c3)nc(N3CCN(C(c4ccccc4)c4ccccc4)CC3)n2)CC1 | 2.47 | 3.77 | 3.45 | 4.05 | 3.78 | 23.5 | 2.97 | 5.03 | – | – | 1.23 | 1.93 | 1.75 | 2.02 | 1.94 | 5.76 | 1.62 | – | 1.92 | –
6 | CC1(C)CC(=O)C=C(NC(=O)c2ccccc2)C1 | > 100 | – | > 100 | > 100 | > 100 | > 100 | > 100 | > 100 | > 100 | > 100 | – | – | – | – | – | – | – | – | – | –
7 | C[C@@H]1CC[C@H]2C(CN(C)CC3=C(C(F)(F)F)O[C@@H]4O[C@@]5(C)CC[C@H]6[C@H](C)CC[C@@H]3[C@@]46OO5)=C(C(F)(F)F)O[C@@H]3O[C@@]4(C)CC[C@@H]1[C@]32OO4 | – | 14.9 | 53.3 | > 80.7 | 12.1 | > 100 | 1.98 | 27 | – | – | 2.86 | 1.81 | 0.65 | > 37.1 | 0.419 | 34.4 | 0.715 | – | 0.818 | 2.67
8 | CCCN(CCC)c1c([N+](=O)[O-])cc(C(N)=O)cc1[N+](=O)[O-] | > 100 | > 100 | – | > 100 | > 100 | – | – | > 100 | 67.3 | 87.4 | – | – | – | – | – | – | – | – | – | –
9 | c1ccc2c(Nc3ccc4c(c3)OCO4)c3ccoc3nc2c1 | > 100 | 70.3 | – | > 100 | 36.6 | 32.3 | 41.7 | 27.3 | > 100 | – | 23.6 | 20.2 | – | 26.4 | 15.5 | 15.4 | 17.9 | – | 10.9 | 27.2
10 | CCOc1c(Cc2ccccc2)c(=O)n2c3ccccc3n3c(=O)n(C)c(=O)c1c23 | > 100 | > 100 | > 100 | > 100 | > 100 | > 100 | > 100 | > 100 | – | – | – | – | – | – | – | – | – | – | – | –
11 | CCc1cc2c(c3[nH]ccc13)[C@@H](C)C[C@H]2C | 32.3 | 30.9 | 41 | – | 37.1 | – | 25.3 | 37.8 | 31.9 | 48.8 | – | – | – | – | – | – | – | – | – | –
12 | CCN(CC)CCn1nc2c3c(cccc3c1=O)-c1ccccc1-2 | > 50 | – | > 50 | 13 | 45.2 | 15.9 | 4.74 | 8.98 | 9.84 | 9.22 | 1.25 | – | 1.89 | 3.79 | 3.78 | 2.18 | 1.31 | 1.8 | 1.82 | 2.21
13 | Cc1ccc(/C=C2\CN(C(=O)CCN3CCC(=NO)CC3)C/C(=C\c3ccc(C)cc3)C2=O)cc1 | 2.73 | 2.83 | – | 7.02 | – | – | 0.397 | – | – | 4.6 | 1.42 | 1.4 | – | 2.75 | – | – | 0.185 | 1.69 | – | –
14 | O=[P+](O)c1cc2c3ccccc3ccc2c2ccccc12 | – | – | > 100 | – | > 100 | > 100 | > 100 | > 100 | > 100 | > 100 | – | – | – | – | – | – | – | – | – | –
15 | COC(=O)C1=C(c2cc(OC)c(OC)c(OC)c2)OC(c2cc(OC)c(OC)c(OC)c2)C1 (stereo unspecified) | 40 | 65.4 | > 100 | – | 48.6 | > 100 | 36.9 | 48.9 | – | – | – | – | – | – | – | – | – | – | – | –
16 | O=C(O)c1ccccc1/C=C1/Nc2ccccc2C1=O | > 100 | > 100 | > 100 | > 100 | > 100 | > 100 | > 100 | > 100 | – | > 100 | – | – | – | – | – | – | – | – | – | –
17 | c1cc[c]([Sn]([O]c2cccc3cccnc23)([c]2ccccc2)[c]2ccccc2)cc1 | 0.0301 | 0.0332 | 0.0217 | 0.059 | 0.0337 | 0.145 | 0.0261 | 0.0397 | – | – | 0.0163 | 0.0168 | 0.0101 | 0.0217 | 0.0171 | 0.0482 | 0.0132 | – | 0.0158 | < 0.01
18 | O=C(c1nc2ccccc2[nH]1)C1C(c2cccc([N+](=O)[O-])c2)C2CC3CCCCC3N2[C@@]12C(=O)Nc1cc(Cl)ccc12 (stereo partly specified) | 3.16 | 7.2 | 4.31 | – | – | 4.62 | 2.96 | 5.89 | 4.38 | 6.67 | 1.38 | 2.23 | 1.78 | – | – | 1.86 | 1.55 | 2.58 | 2.37 | 1.67
19 | COc1ccccc1NC(=O)NS(=O)(=O)c1ccccc1 | > 100 | > 100 | > 100 | > 100 | – | > 100 | > 100 | > 100 | > 100 | > 100 | – | – | – | – | – | – | – | – | – | –
20 | CC1CC(=O)CC[C@@H]1OCc1ccccc1 (stereo partly specified) | > 100 | > 100 | > 100 | > 100 | > 100 | > 100 | > 100 | > 100 | – | > 100 | – | – | – | – | – | – | – | – | – | –
21 | COC(=O)C([O][Ge]([CH3])([CH3])[CH3])c1ccccc1 (stereo unspecified) | > 100 | > 100 | > 100 | – | > 100 | > 100 | > 100 | > 100 | > 100 | > 100 | > 100 | > 100 | > 100 | – | > 100 | > 100 | > 100 | 90.8 | > 100 | > 100
22 | CCC1C(=O)OCc2c1cc1n(c2=O)Cc2ccccc2-1 (stereo unspecified) | > 100 | > 100 | > 100 | > 100 | > 100 | > 100 | > 100 | > 100 | – | > 100 | – | – | – | – | – | – | – | – | – | –
23 | Cc1ccc(S(=O)(=O)N/N=C/CN2C(=O)c3ccccc3C2=O)cc1 | > 100 | > 100 | > 100 | > 100 | – | > 100 | > 100 | > 100 | > 100 | > 100 | – | – | – | – | – | – | – | – | – | –
24 | Nc1ccc(C(=O)N/C(=C\c2ccc3c(c2)OCO3)c2nc3ccc4c(c3[nH]2)C(=O)c2ccccc2C4=O)cc1 | 18.7 | 64.9 | > 100 | 75.4 | > 100 | > 100 | > 100 | 56.5 | 71.9 | – | – | – | – | – | – | – | – | – | – | –
25 | COc1ccc(C(=O)C(CN(C)C)c2ccccc2)cc1 (stereo unspecified) | 2.74 | 4.95 | 1.57 | 7.97 | 2.89 | 23.6 | 3.8 | 3.32 | – | > 100 | 1.43 | 2.11 | 0.496 | 3.09 | 1.42 | 10.9 | 1.73 | 5.54 | 1.56 | –
26 | CC(C)C(NCc1c2ccccc2nc2ccccc12)C(=O)O (stereo unspecified) | – | > 100 | > 100 | > 100 | > 100 | > 100 | > 100 | > 100 | 91.2 | 73.8 | – | – | – | – | – | – | – | – | – | –
27 | COc1cccc(C2N3CCCCC3[C@@H]3c4[nH]c5ccccc5c4CCN23)c1OC (stereo partly specified) | 28.1 | 28.6 | 33.4 | 29.2 | 25.9 | 29.4 | – | 30.6 | – | 31.7 | – | – | – | – | – | – | – | – | – | –
